“And” between values parts separate entries of the source, which are not always exact repeats. Identical values can stand only once.
Test system: 958767-090-R-J1-PDC spheroid growth
Assay: Anticancer human tumor 958767-090-R-J1-PDC patient-derived head and neck squamous carcinoma cell line growth inhibition [IpAb]
Details: spheroids with HUVEC and MSC; for viability, T/C: stronger effect = lower value
In short: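 Combinations with ipatasertib or abemaciclib were tested on tumour spheroids holding HUVEC (25%) and MSC (15%) alongside 60% malignant cells. Top concentration was at or near clinical Cmax (10 microM if undefined), descending in half-log steps.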

[1] = curve of first compound, second compound 0.01 µM
[2] = curve of first compound, second compound 0.0316 µM
[3] = curve of first compound, second compound 0.1 µM
[4] = curve of first compound, second compound 0.316 µM
[5] = curve of first compound, second compound 1 µM
[6] = second compound 0.01 µM, first compound 0.0316 µM
[7] = second compound 0.01 µM, first compound 0.1 µM
[8] = second compound 0.01 µM, first compound 0.316 µM
[9] = second compound 0.01 µM, first compound 1 µM
[10] = second compound 0.01 µM, first compound 3.16 µM
[11] = second compound 0.01 µM, first compound 10 µM
[12] = second compound 0.0316 µM, first compound 0.0316 µM
[13] = second compound 0.0316 µM, first compound 0.1 µM
[14] = second compound 0.0316 µM, first compound 0.316 µM
[15] = second compound 0.0316 µM, first compound 1 µM
[16] = second compound 0.0316 µM, first compound 3.16 µM
[17] = second compound 0.0316 µM, first compound 10 µM
[18] = second compound 0.1 µM, first compound 0.0316 µM
[19] = second compound 0.1 µM, first compound 0.1 µM
[20] = second compound 0.1 µM, first compound 0.316 µM
[21] = second compound 0.1 µM, first compound 1 µM
[22] = second compound 0.1 µM, first compound 3.16 µM
[23] = second compound 0.1 µM, first compound 10 µM
[24] = second compound 0.316 µM, first compound 0.0316 µM
[25] = second compound 0.316 µM, first compound 0.1 µM
[26] = second compound 0.316 µM, first compound 0.316 µM
[27] = second compound 0.316 µM, first compound 1 µM
[28] = second compound 0.316 µM, first compound 3.16 µM
[29] = second compound 0.316 µM, first compound 10 µM
[30] = second compound 1 µM, first compound 0.0316 µM
[31] = second compound 1 µM, first compound 0.1 µM
[32] = second compound 1 µM, first compound 0.316 µM
[33] = second compound 1 µM, first compound 1 µM
[34] = second compound 1 µM, first compound 3.16 µM
[35] = second compound 1 µM, first compound 10 µM
[36] = curve of first compound, second compound 3.16 µM
[37] = curve of first compound, second compound 10 µM
[38] = second compound 3.16 µM, first compound 0.0316 µM
[39] = second compound 3.16 µM, first compound 0.1 µM
[40] = second compound 3.16 µM, first compound 0.316 µM
[41] = second compound 3.16 µM, first compound 1 µM
[42] = second compound 10 µM, first compound 0.0316 µM
[43] = second compound 10 µM, first compound 0.1 µM
[44] = second compound 10 µM, first compound 0.316 µM
[45] = second compound 10 µM, first compound 1 µM
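Further: spheroids exposed to agents for 7 days.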
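Wherever viability, T/C is given: 100% = DMSO vehicle control wells.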

| SMILES | IC50 [3] [nM] | IC50 [4] [nM] | IC50 [5] [nM] | viability, T/C [18] [%] | viability, T/C [19] [%] | viability, T/C [20] [%] | viability, T/C [21] [%] | viability, T/C [22] [%] | viability, T/C [23] [%] | viability, T/C [24] [%] | viability, T/C [25] [%] | viability, T/C [26] [%] | viability, T/C [27] [%] | viability, T/C [28] [%] | viability, T/C [29] [%] | viability, T/C [30] [%] | viability, T/C [31] [%] | viability, T/C [32] [%] | viability, T/C [33] [%] | viability, T/C [34] [%] | also measured |
| --- | --- | --- | --- | --- | --- | --- | --- | --- | --- | --- | --- | --- | --- | --- | --- | --- | --- | --- | --- | --- | --- |
| Cn1nccc1Nc1nccc(-c2ccn(C(CO)c3ccc(Cl)c(F)c3)c(=O)c2)n1 (configuration not stated) + CCN1CCN(Cc2ccc(Nc3ncc(F)c(-c4cc(F)c5nc(C)n(C(C)C)c5c4)n3)nc2)CC1 | 441 | 254 | 1020 | 63.3 | 50.6 | 51.5 | 46.4 | 36.8 | 18.6 | 61.4 | 50.5 | 46.8 | 47.7 | 31.6 | 23.2 | 71.1 | 60.2 | 60.2 | 50.7 | 38.8 | IC50 [1]: 1580 nM; IC50 [2]: 1610 nM; viability, T/C [6]: 72.3%; viability, T/C [7]: 62.5%; viability, T/C [8]: 61.3%; viability, T/C [9]: 55.5%; viability, T/C [10]: 43.8%; viability, T/C [11]: 24.9%; viability, T/C [12]: 69.3%; viability, T/C [13]: 60.3%; viability, T/C [14]: 53%; viability, T/C [15]: 55.2%; viability, T/C [16]: 46.8%; viability, T/C [17]: 17.1%; viability, T/C [35]: 21.7% |
| Cn1ncc(Cl)c1-c1cc(C(=O)NC(CN)Cc2cccc(F)c2)sc1Cl (configuration not stated) + CC(C)NCC(C(=O)N1CCN(c2ncnc3c2C(C)CC3O)CC1)c1ccc(Cl)cc1 | 1210 | 952 | 1020 | 70.3 | 70.3 | 54.5 | 59.3 | 32.8 | 0.14 | 57.5 | 62.6 | 52.2 | 47.5 | 37.9 | 0.46 | 54.6 | 50.8 | 55.4 | 50 | 31.6 | IC50 [36]: 113 nM; IC50 [37]: < 31.6 nM; viability, T/C [35]: 0.13%; viability, T/C [38]: 53.1%; viability, T/C [39]: 47.6%; viability, T/C [40]: 48.4%; viability, T/C [41]: 45.7%; viability, T/C (second compound 3.16 µM, first compound 3.16 µM): 32.3%; viability, T/C (second compound 3.16 µM, first compound 10 µM): 0.64%; viability, T/C [42]: 42.5%; viability, T/C [43]: 36.3%; viability, T/C [44]: 39.8%; viability, T/C [45]: 42.5%; viability, T/C (second compound 10 µM, first compound 3.16 µM): 22.2%; viability, T/C (second compound 10 µM, first compound 10 µM): 0.81% |
| COc1c(OCCCN2CCOCC2)ccc2c3n(c(=NC(=O)c4cnc(N)nc4)nc12)CCN3 + CC(C)NCC(C(=O)N1CCN(c2ncnc3c2C(C)CC3O)CC1)c1ccc(Cl)cc1 | 14.1 | 4.43 | < 3.16 | 36.6 | 22.6 | 9.18 | 4.85 | – | – | 25.7 | 15.6 | 6.21 | 3.9 | – | – | 26.6 | 15.5 | 5.63 | 3.82 | – | IC50 [36]: < 3.16 nM; IC50 [37]: < 3.16 nM; viability, T/C (second compound 0.1 µM, first compound 0.00316 µM): 78%; viability, T/C (second compound 0.1 µM, first compound 0.01 µM): 55.2%; viability, T/C (second compound 0.316 µM, first compound 0.00316 µM): 52.9%; viability, T/C (second compound 0.316 µM, first compound 0.01 µM): 43.2%; viability, T/C (second compound 1 µM, first compound 0.00316 µM): 42.1%; viability, T/C (second compound 1 µM, first compound 0.01 µM): 32.6%; viability, T/C (second compound 3.16 µM, first compound 0.00316 µM): 41.7%; viability, T/C (second compound 3.16 µM, first compound 0.01 µM): 24.8%; viability, T/C [38]: 20.9%; viability, T/C [39]: 11.5%; viability, T/C [40]: 6.46%; viability, T/C [41]: 3.61%; viability, T/C (second compound 10 µM, first compound 0.00316 µM): 28.3%; viability, T/C (second compound 10 µM, first compound 0.01 µM): 19.8%; viability, T/C [42]: 14.1%; viability, T/C [43]: 9.67%; viability, T/C [44]: 4.23%; viability, T/C [45]: 3.22% |
| Cc1nc(NC(=O)N2CCCC2C(N)=O)sc1-c1ccnc(C(C)(C)C(F)(F)F)c1 (configuration not stated) | – | – | – | – | – | – | – | – | – | – | – | – | – | – | – | – | – | – | – | – | viability, T/C (compound 0.0316 µM): 85.3% and 75%; viability, T/C (compound 0.1 µM): 68.5% and 71.4%; viability, T/C (compound 0.316 µM): 48.5% and 42.7%; viability, T/C (compound 1 µM): 32.3% and 36.4%; viability, T/C (compound 3.16 µM): 22.2% and 22.6%; viability, T/C (compound 10 µM): 9.48% and 9.72%; IC50 (curve of compound): 304 nM and 311 nM |
| Cn1ncc(Cl)c1-c1cc(C(=O)NC(CN)Cc2cccc(F)c2)sc1Cl (configuration not stated) + CCN1CCN(Cc2ccc(Nc3ncc(F)c(-c4cc(F)c5nc(C)n(C(C)C)c5c4)n3)nc2)CC1 | 614 | 1080 | 818 | 73.2 | 65.9 | 51.5 | 46.1 | 30.3 | 0.18 | 62.7 | 46.6 | 47.1 | 52.5 | 19.7 | 0.17 | 83.7 | 63.3 | 62.3 | 50.9 | 27.9 | IC50 [1]: 786 nM; IC50 [2]: 647 nM; viability, T/C [6]: 89.7%; viability, T/C [7]: 76.1%; viability, T/C [8]: 58.8%; viability, T/C [9]: 45.4%; viability, T/C [10]: 33.5%; viability, T/C [11]: 0.14%; viability, T/C [12]: 75.1%; viability, T/C [13]: 74.5%; viability, T/C [14]: 62.6%; viability, T/C [15]: 38.3%; viability, T/C [16]: 25.5%; viability, T/C [17]: 0.15%; viability, T/C [35]: 1.92% |

Reference: PubChem BioAssay AID2060336 (Molecular Pharmacology Branch, DTP, NCI, 2025)
